Measured values as given in PubChem BioAssay (NCI).
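Values below derive from 48-hour exposures of cells grown in 96-well plates, with endpoints linearly interpolated between the two concentrations bracketing the appropriate inhibition level. The concentration for 50% growth inhibition is given as GI50. TGI: total growth inhibition.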

Tests used:
Assay in all cases: inhibition of tumour cell growth, NCI panel, 48 h
HOP-92 NSCLC = test system: HOP-92 NSCLC
CAKI-1 renal = test system: CAKI-1 renal
NCI-H522 lung = test system: NCI-H522 lung
CCRF-CEM leukemia = test system: CCRF-CEM leukemia
HCC-2998 colon = test system: HCC-2998 colon
HT29 colon = test system: HT29 colon
SF-268 CNS = test system: SF-268 CNS
HOP-62 NSCLC = test system: HOP-62 NSCLC
T-47D breast = test system: T-47D breast
BT-549 breast = test system: BT-549 breast

Row | SMILES | GI50 (HOP-92 NSCLC) [µM] | TGI (HOP-92 NSCLC) [µM] | GI50 (CAKI-1 renal) [µM] | TGI (CAKI-1 renal) [µM] | GI50 (NCI-H522 lung) [µM] | TGI (NCI-H522 lung) [µM] | GI50 (CCRF-CEM leukemia) [µM] | TGI (CCRF-CEM leukemia) [µM] | GI50 (HCC-2998 colon) [µM] | TGI (HCC-2998 colon) [µM] | GI50 (HT29 colon) [µM] | TGI (HT29 colon) [µM] | GI50 (SF-268 CNS) [µM] | TGI (SF-268 CNS) [µM] | GI50 (HOP-62 NSCLC) [µM] | TGI (HOP-62 NSCLC) [µM] | TGI (T-47D breast) [µM] | GI50 (BT-549 breast) [µM] | TGI (BT-549 breast) [µM] | GI50 (T-47D breast) [µM]
1 | NC1NC=NC2C1N=CN2C1OC(CO)C2[O][Sn][O]C21 (configuration not stated) | 27.5 | > 100 | > 100 | > 100 | > 100 | > 100 | > 100 | > 100 | > 100 | > 100 | > 100 | > 100 | > 100 | > 100 | > 100 | > 100 |  |  |  | 
2 | Nc1nncc2c1c(Br)cn2C1OC(CO)C(O)C1O (configuration not stated) |  | 62.3 |  | > 100 |  | > 100 |  | > 100 |  | > 100 |  | > 100 |  | > 100 |  | > 100 |  |  |  | 
3 | CC(C)(CN1C(=O)C(Cl)=C(Cl)C1=O)CN1C(=O)C(Cl)=C(Cl)C1=O |  | 18.1 |  | 15.9 |  | 4.91 |  |  |  | 39.4 |  | 42 |  | 41.5 |  | 45.6 |  |  |  | 
4 | O=C(c1ccc(O)cc1O)C1C(c2ccc(O)cc2)OC(c2ccc(O)cc2)C1C(=O)c1ccc(O)cc1O (configuration not stated) |  |  |  | > 100 |  | 34.3 |  |  |  | 33.3 |  | > 100 |  | 42.5 |  | 22.9 |  |  |  | 
5 | C/C(=N\O)c1ccc2ccc3ccccc3c2c1 |  |  |  | > 100 |  | 72.7 |  | > 100 |  |  |  | > 100 |  | > 100 |  | > 100 | > 100 |  |  | 
6 | Cn1c(CBr)nc2c1C(=O)c1nc(CBr)[nH]c(=O)c1C2=O |  | > 100 |  | > 100 |  | > 100 |  | > 100 |  |  |  | > 100 |  | > 100 |  |  |  |  |  | 
7 | COC1C2C[C@@H](O)CCC2C(C(=O)OCCl)C[C@H]1O (some centres not stated) |  |  |  | > 100 |  | > 100 |  | > 100 |  | > 100 |  |  |  | > 100 |  | > 100 |  |  |  | 
8 | Cc1ccc(NC(=O)CCCC(=O)CC(=O)c2ccc(Br)cc2)cc1 |  | > 100 |  | > 100 |  | > 100 |  | > 100 |  | > 100 |  | > 100 |  | > 100 |  | > 100 |  |  |  | 
9 | Cc1nc(N)nc(N)c1CCCCc1ccc(N)cc1 |  | 18 |  | 39.5 |  | 16 |  | 22.5 |  | 15.7 |  | 15.1 |  | 17.3 |  | 18.2 |  |  |  | 
10 | NC(=O)c1ccc2c(c1)-c1nc-2nc2[n-]c(nc3nc(nc4[n-]c(n1)c1ccc(C(N)=O)cc41)-c1ccc(C(N)=O)cc1-3)c1ccc(C(N)=O)cc21.[Co+2] | > 50 | > 50 | > 50 | > 50 | > 50 | > 50 | 14.5 | > 50 |  |  | > 50 | > 50 | > 50 | > 50 | > 50 | > 50 |  |  |  | 
11 | Cc1ccc(NC(=O)CCc2nc(=S)[nH][nH]2)cc1 |  | > 100 |  | > 100 |  | > 100 |  | > 100 |  |  |  | > 100 |  | > 100 |  | > 100 |  |  |  | 
12 | Cc1ccc(CNc2ccc(Br)cc2)cc1 |  | 65.3 |  | > 100 |  | 43.9 |  | 78.4 |  | 66 |  | 93.4 |  | > 100 |  | > 100 | > 100 |  |  | 
13 | COc1cccc(/C=C/C(=O)c2ccc3cc(OC)ccc3c2)c1 | 11.1 | 41.3 | 16.4 | > 50 |  |  |  |  |  |  |  |  | 15.5 | > 50 | 17.3 | > 50 | 25.7 | 8.07 | 17.7 | 10.7
14 | CC(C)N(C(=O)C12C3C4C1C1C2C3C41C#N)C(C)C (configuration not stated) |  | > 100 |  | > 100 |  | > 100 |  | > 85.1 |  | > 100 |  | > 100 |  | > 100 |  | > 100 |  |  |  | 
15 | COc1cc[c]([Sn]([c]2ccc(OC)cc2)([c]2ccc(OC)cc2)[c]2ccc(OC)cc2)cc1 | 4.2 | 22.8 | 10.9 | 69.2 |  |  | 20.7 | 69.8 | 17.8 | 50.5 | 20.3 | > 100 | 29.7 | > 100 | 81.8 | > 100 |  |  |  | 
16 | CN=c1ss/c(=N\C(=S)N(C)C)n1C |  | > 100 |  | > 100 |  |  |  | > 100 |  | > 100 |  | > 100 |  | > 100 |  | > 100 |  |  |  | 
17 | CCCNC(=O)Nc1c([N+](=O)[O-])cc(C(F)(F)F)cc1[N+](=O)[O-] |  | > 100 |  | > 100 |  | 97.5 |  | > 100 |  |  |  | > 100 |  | > 100 |  | > 100 |  |  |  | 
18 | Nc1nnc2c(-c3ccccc3)[nH]nc2n1 |  | 63.6 |  | > 100 |  | > 100 |  | > 100 |  | > 100 |  | > 100 |  | 58.7 |  |  |  |  |  | 
